From ChEMBL document CHEMBL5352429, “Designed symmetrical β-hairpin peptides for treating multidrug-resistant salmonella typhimurium infections” (Eur J Med Chem, 2022)
≈ marks a conversion by molar mass, not a printed value. Calls of active or inactive are those of the source. The calls are words filed in the database; no cut-off is given here. Peptide text beside a SMILES is read from it.

Columns and labels:
[1] = Antibacterial activity against Salmonella enterica subsp. enterica serovar Choleraesuis CICC 21493 incubated overnight by standard microtiter dilution method; assay type: functional
RAW264.7 [2] = test: Inhibition of LPS-stimulated TNF-alpha production in mouse RAW264.7 cells at 1 to 128 ug/ml incubated for 24 hrs by ELISA analysis; assay type: functional, cell-based; conditions: dose 1-128 µg/ml
Salmonella typhimurium [3] = test: Antibacterial activity against Salmonella typhimurium DT104 in the presence of KCl by MH broth based assay; assay type: functional, Salmonella enterica subsp. enterica serovar Typhimurium; conditions: Salmonella enterica
[4] = Antibacterial activity against Salmonella enterica subsp. enterica serovar Choleraesuis ATCC 13312 incubated overnight by standard microtiter dilution method; assay type: functional
[5] = Antibacterial activity against Salmonella wandsworth CICC 21504 incubated overnight by standard microtiter dilution method; assay type: functional, Salmonella enterica subsp. enterica serovar Wandsworth; conditions: Salmonella enterica
Salmonella paratyphi = test: Antibacterial activity against Salmonella paratyphi A CICC 21501 incubated overnight by standard microtiter dilution method; assay type: functional, Salmonella enterica subsp. enterica serovar Paratyphi A; conditions: Salmonella enterica
Staphylococcus aureus [6] = test: Antibacterial activity against Staphylococcus aureus ATCC 29213 incubated overnight by standard microtiter dilution method; assay type: functional
[7] = system: Salmonella enterica subsp. enterica serovar Paratyphi B; test: Antibacterial activity against Salmonella paratyphi B CICC 21495 incubated overnight by standard microtiter dilution method; assay type: functional
RAW264.7 [8] = test: Inhibition of LPS-stimulated NO production in mouse RAW264.7 cells incubated for 24 hrs by Griess reagent based analysis; assay type: functional, cell-based; conditions: dose 1-128 µg/ml
Salmonella typhimurium [9] = test: Antibacterial activity against Salmonella typhimurium CICC 21913 incubated overnight by standard microtiter dilution method; assay type: functional, Salmonella enterica subsp. enterica serovar Typhimurium; conditions: Salmonella enterica
Salmonella typhimurium [10] = test: Antibacterial activity against Salmonella typhimurium DT104 in the presence 50% inactivated mouse serum by MH broth based assay; assay type: functional, Salmonella enterica subsp. enterica serovar Typhimurium; conditions: Salmonella enterica
Salmonella typhimurium [11] = test: Antibacterial activity against Salmonella typhimurium DT104 in the presence of NaCl by MH broth based assay; assay type: functional, Salmonella enterica subsp. enterica serovar Typhimurium; conditions: Salmonella enterica
Candida albicans = test: Antifungal activity against Candida albicans ATCC 10231 incubated overnight by standard microtiter dilution method; assay type: functional
Erythrocyte = test: Hemolytic activity in human Red blood cells assessed as hemolysis incubated for 1 hrs by absorbance based microplate reader analysis; assay type: toxicity, cell-based
Salmonella typhimurium [12] = test: Antibacterial activity against Salmonella typhimurium DT104 ATCC 700408 incubated overnight by standard microtiter dilution method; assay type: functional, Salmonella enterica subsp. enterica serovar Typhimurium; conditions: Salmonella enterica
RAW264.7 [13] = test: Inhibition of LPS-stimulated IL-8 production in mouse RAW264.7 cells at 1 to 128 ug/ml incubated for 24 hrs by ELISA analysis; assay type: functional, cell-based; conditions: dose 1-128 µg/ml
Salmonella typhimurium [14] = test: Antibacterial activity against Salmonella typhimurium DT104 in the presence of FeCl3 by MH broth based assay; assay type: functional, Salmonella enterica subsp. enterica serovar Typhimurium; conditions: Salmonella enterica
Salmonella typhimurium [15] = test: Antibacterial activity against Salmonella typhimurium DT104 in the presence 25% inactivated mouse serum by MH broth based assay; assay type: functional, Salmonella enterica subsp. enterica serovar Typhimurium; conditions: Salmonella enterica
Salmonella typhimurium [16] = test: Antibacterial activity against Salmonella typhimurium DT104 in the presence of CaCl2 by MH broth based assay; assay type: functional, Salmonella enterica subsp. enterica serovar Typhimurium; conditions: Salmonella enterica
Staphylococcus aureus [17] = test: Antibacterial activity against methicillin-resistant Staphylococcus aureus ATCC 43300 incubated overnight by standard microtiter dilution method; assay type: functional
Salmonella typhimurium [18] = test: Antibacterial activity against Salmonella typhimurium CICC 21483 incubated overnight by standard microtiter dilution method; assay type: functional, Salmonella enterica subsp. enterica serovar Typhimurium; conditions: Salmonella enterica
Escherichia coli = test: Antibacterial activity against Escherichia coli O157:H7 CICC 21530 incubated overnight by standard microtiter dilution method; assay type: functional
[19] = Antibacterial activity against Salmonella dublin CICC 21497 incubated overnight by standard microtiter dilution method; assay type: functional, Salmonella enterica subsp. enterica serovar Dublin; conditions: Salmonella enterica
[20] = system: Staphylococcus epidermidis; test: Antibacterial activity against methicillin-resistant Staphylococcus epidermidis ATCC 12228 incubated overnight by standard microtiter dilution method; assay type: functional
RAW264.7 [21] = test: Inhibition of LPS-stimulated IL-1beta production in mouse RAW264.7 cells at 1 to 128 ug/ml incubated for 24 hrs by ELISA analysis; assay type: functional, cell-based; conditions: dose 1-128 µg/ml
[22] = Hemolytic activity in human Red blood cells assessed as hemolysis at 128 ug/ml incubated for 1 hrs by absorbance based microplate reader analysis relative to control; assay type: toxicity, cell-based, Erythrocyte; conditions: red blood cells (erythrocytes), at 128 µg/mL, read-out: Activity
Enterococcus faecalis = test: Antibacterial activity against Enterococcus faecalis ATCC 29212 incubated overnight by standard microtiter dilution method; assay type: functional
[23] = Cytotoxicity against mouse RAW264.7 cells assessed as cell viability at 128 ug/ml incubated for 24 hrs by MTT assay; assay type: toxicity, cell-based; conditions: at 128 µg/mL, read-out: Activity
Lipopolysaccharide (LPS) = test: Displacement of BODIPY-TR-cadaverine from Salmonella typhimurium LPS assessed as increase in fluorescence intensity by fluorescence spectrophotometric analysis; conditions: Salmonella enterica subsp. enterica serovar Typhimurium; dose 0.25-8 µg/ml
[24] = Antibacterial activity against Salmonella paratyphi C CICC 21512 incubated overnight by standard microtiter dilution method; assay type: functional, Salmonella enterica subsp. enterica serovar Paratyphi C; conditions: Salmonella enterica
Salmonella typhimurium [25] = test: Antibacterial activity against Salmonella typhimurium DT104 in the presence of NH4Cl by MH broth based assay; assay type: functional, Salmonella enterica subsp. enterica serovar Typhimurium; conditions: Salmonella enterica
Salmonella typhimurium [26] = test: Antibacterial activity against Salmonella typhimurium DT104 in the presence of MgCl2 by MH broth based assay; assay type: functional, Salmonella enterica subsp. enterica serovar Typhimurium; conditions: Salmonella enterica
Salmonella enteritidis = test: Antibacterial activity against Salmonella enteritidis CICC 21527 incubated overnight by standard microtiter dilution method; assay type: functional, Salmonella enterica subsp. enterica serovar Enteritidis; conditions: Salmonella enterica
Cell membrane = test: Disruption of membrane integrity in Salmonella typhimurium DT104 assessed as increase in fluorescence intensity at 0.5 to 2 times of MIC incubated for 15 mins by PI staining based flow cytometric analysis; assay type: subcellular; conditions: Salmonella enterica subsp. enterica serovar Typhimurium
[27] = Antibacterial activity against Salmonella blockley CICC 21489 incubated overnight by standard microtiter dilution method; assay type: functional, Salmonella enterica subsp. enterica serovar Blockley; conditions: Salmonella enterica
Salmonella typhimurium [28] = test: Antibacterial activity against multi-drug resistant Salmonella typhimurium DT104 assessed as inhibition of bacterial growth at 0.5 to 2 times of MIC by MH agar based serial dilution method; assay type: functional, organism-based; conditions: Salmonella enterica subsp. enterica serovar Typhimurium, time <= 120.0 min, TDE = time-dependent effect
Salmonella typhimurium [29] = test: Antibacterial activity against multi-drug resistant Salmonella typhimurium DT104 assessed as inhibition of bacterial growth measured upto 120 mins by MH agar based serial dilution method; assay type: functional, organism-based; conditions: Salmonella enterica subsp. enterica serovar Typhimurium

SMILES	MIC [1]	inhibition (RAW264.7 [2])	MIC (Salmonella typhimurium [3])	MIC [4]	MIC [5]	MIC (Salmonella paratyphi)	MIC (Staphylococcus aureus [6])	MIC [7]	inhibition (RAW264.7 [8])	MIC (Salmonella typhimurium [9])	MIC (Salmonella typhimurium [10])	MIC (Salmonella typhimurium [11])	MIC (Candida albicans)	MHC (Erythrocyte)	MIC (Salmonella typhimurium [12])	inhibition (RAW264.7 [13])	MIC (Salmonella typhimurium [14])	MIC (Salmonella typhimurium [15])	MIC (Salmonella typhimurium [16])	MIC (Staphylococcus aureus [17])	further results
CC(C)[C@H](N)C(=O)N[C@@H](CCCCN)C(=O)N[C@H](C(=O)N[C@@H](CCCCN)C(=O)N[C@H](C(=O)N[C@@H](CCCCN)C(=O)N[C@@H](CS)C(=O)N[C@H](C(=O)N[C@@H](CCCCN)C(=O)N[C@@H](CO)C(=O)NCC(=O)N[C@@H](CS)C(=O)N[C@@H](CCCCN)C(=O)N[C@H](C(=O)N[C@@H](CCCCN)C(=O)N[C@H](C(=O)N[C@@H](CCCCN)C(=O)N[C@H](C(N)=O)C(C)C)C(C)C)C(C)C)[C@@H](C)O)C(C)C)C(C)C (H-VKVKVKCTKSGCKVKVKV-NH2)	32 µg/mL (≈ 16.3 µM)	Active	128 µg/mL	0.5 µg/mL (≈ 0.255 µM)	4 µg/mL (≈ 2.04 µM)	2 µg/mL (≈ 1.02 µM)	> 128 µg/mL	1 µg/mL (≈ 0.51 µM)	Dose-Dependent Effect	> 128 µg/mL	> 128 µg/mL	> 128 µg/mL	8 µg/mL (≈ 4.08 µM)	> 128 µg/mL	32 µg/mL (≈ 16.3 µM)	Active	64 µg/mL	> 128 µg/mL	> 128 µg/mL	> 128 µg/mL	MIC (Salmonella typhimurium [18]): 64 µg/mL (≈ 32.6 µM); MIC (Escherichia coli): 2 µg/mL (≈ 1.02 µM); MIC [19]: 4 µg/mL (≈ 2.04 µM); MIC [20]: 4 µg/mL (≈ 2.04 µM); inhibition (RAW264.7 [21]): Active; hemolysis at 1 h, 128 ug/ml [22]: < 10%; MIC (Enterococcus faecalis): 4 µg/mL (≈ 2.04 µM); viability at 24 h, 128 ug/ml [23]: 39.8%; Activity (Lipopolysaccharide (LPS)): Dose-Dependent Effect; MIC [24]: 2 µg/mL (≈ 1.02 µM); MIC (Salmonella typhimurium [25]): 64 µg/mL; MIC (Salmonella typhimurium [26]): > 128 µg/mL; MIC (Salmonella enteritidis): 32 µg/mL (≈ 16.3 µM); Activity (Cell membrane): Active; MIC [27]: 16 µg/mL (≈ 8.16 µM)
C[C@@H](O)[C@H](NC(=O)[C@H](CS)NC(=O)[C@H](CCCCN)NC(=O)[C@H](Cc1c[nH]c2ccccc12)NC(=O)[C@H](CCCCN)NC(=O)[C@H](Cc1c[nH]c2ccccc12)NC(=O)[C@H](CCCCN)NC(=O)[C@@H](N)Cc1c[nH]c2ccccc12)C(=O)N[C@@H](CCCCN)C(=O)N[C@@H](CO)C(=O)NCC(=O)N[C@@H](CS)C(=O)N[C@@H](CCCCN)C(=O)N[C@@H](Cc1c[nH]c2ccccc12)C(=O)N[C@@H](CCCCN)C(=O)N[C@@H](Cc1c[nH]c2ccccc12)C(=O)N[C@@H](CCCCN)C(=O)N[C@@H](Cc1c[nH]c2ccccc12)C(N)=O (H-WKWKWKCTKSGCKWKWKW-NH2)	16 µg/mL (≈ 6.44 µM)	Active	> 128 µg/mL	0.5 µg/mL (≈ 0.201 µM)	4 µg/mL (≈ 1.61 µM)	4 µg/mL (≈ 1.61 µM)	4 µg/mL (≈ 1.61 µM)	1 µg/mL (≈ 0.403 µM)	Dose-Dependent Effect	4 µg/mL (≈ 1.61 µM)	128 µg/mL (≈ 51.5 µM)	> 128 µg/mL	32 µg/mL (≈ 12.9 µM)	32 µg/mL	32 µg/mL (≈ 12.9 µM)	Active	> 128 µg/mL	64 µg/mL (≈ 25.8 µM)	> 128 µg/mL	4 µg/mL (≈ 1.61 µM)	Activity (Salmonella typhimurium [28]): Tde; MIC (Salmonella typhimurium [18]): 32 µg/mL (≈ 12.9 µM); MIC (Escherichia coli): 4 µg/mL (≈ 1.61 µM); MIC [19]: 8 µg/mL (≈ 3.22 µM); MIC [20]: 4 µg/mL (≈ 1.61 µM); inhibition (RAW264.7 [21]): Active; hemolysis at 1 h, 128 ug/ml [22]: 30.8%; MIC (Enterococcus faecalis): 2 µg/mL (≈ 0.805 µM); viability at 24 h, 128 ug/ml [23]: 36.6%; Activity (Salmonella typhimurium [29]): Dose-Dependent Effect; Activity (Lipopolysaccharide (LPS)): Dose-Dependent Effect; MIC [24]: 4 µg/mL (≈ 1.61 µM); MIC (Salmonella typhimurium [25]): > 128 µg/mL; MIC (Salmonella typhimurium [26]): > 128 µg/mL; MIC (Salmonella enteritidis): 16 µg/mL (≈ 6.44 µM); Activity (Cell membrane): Active; MIC [27]: > 128 µg/mL
